Experimental data published in patent US20040176349A1, “Antibacterial composition” (priority 2001, published 2004).

Experiments:
enterococci = experiment: Checkerboard study, synergy summary of Example 2; assay type: cell-based, Enterococcus; settings: in words
Text: (§1) The aim of the study was to detect any synergy between PFOB and the other antibiotics. For the purposes of the study, synergy was defined in accordance with the FIC (fractional inhibitory concentration) index, as disclosed by Lorian (1991, In “Antibiotics in Laboratory Medicine” 3rd edition, Eds. Williams & Wilkins; esp. p 434-443). In essence, if the combination of test compounds gives at least a 4-fold reduction in the FIC value for each compound, then a synergy may be considered to exist (i.e. FIC of the combination <0.5=synergy; FIC 0.5-2.0=“indifference”; and FIC >2=antagonism).

E. faecalis ATCC 29212 = experiment: Checkerboard microdilution MIC with PFOB, Table 2; assay type: cell-based
Text: as §1
(§2) In Table 2, results in the checkerboard indicating synergy are hatched, and specific optimum synergistic combinations are boxed.

E. faecalis 5659 (vanA) = experiment: Checkerboard microdilution MIC with PFOB, Table 2; assay type: cell-based
Text: as §1, §2

E.faecalis 78097 (van B) = experiment: Checkerboard microdilution MIC with PFOB, Table 2; assay type: cell-based
Text: as §1, §2

E. faecalis ATCC 10541 = experiment: Checkerboard microdilution MIC with PFOB, Table 2; assay type: cell-based
Text: The aim of the study was to detect any synergy between PFOB and the other antibiotics. For the purposes of the study, synergy was defined in accordance with the FIC (fractional inhibitory concentration) index, as disclosed by Lorian (1991, In “Antibiotics in Laboratory Medicine” 3rd edition, Eds. Williams & Wilkins; esp. p 434-443).

[1] = Enterococcus faecalis, read-out: MIC (alone) of Partner

CN[C@H](CC(C)C)C(=O)N[C@H]1C(=O)N[C@@H](CC(N)=O)C(=O)N[C@H]2C(=O)N[C@H]3C(=O)N[C@H](C(=O)N[C@H](C(=O)O)c4cc(O)cc(O)c4-c4cc3ccc4O)[C@H](O)c3ccc(c(Cl)c3)Oc3cc2cc(c3O[C@@H]2O[C@H](CO)[C@@H](O)[C@H](O)[C@H]2O[C@H]2C[C@](C)(N)[C@H](O)[C@H](C)O2)Oc2ccc(cc2Cl)[C@H]1O [Vancomycin, vancomycin]
synergy with PFOB (enterococci): less marked, but still significant, synergy
Synergy FIC (E. faecalis ATCC 29212; E. faecalis ATCC 29212, FIC index of PFOB + labelled partner, <0.5 = synergy): 0.31
MIC of partner antibiotic in the presence of PFOB at 0.5 mg/L (E. faecalis ATCC 29212; E. faecalis ATCC 29212, PFOB 0.5 mg/L): 4 µg/mL
MIC of partner antibiotic in the presence of PFOB at 1 mg/L (E. faecalis ATCC 29212; E. faecalis ATCC 29212, PFOB 1 mg/L): 2 µg/mL
MIC of partner antibiotic in the presence of PFOB at 2 mg/L (E. faecalis ATCC 29212; E. faecalis ATCC 29212, PFOB 2 mg/L): 2 µg/mL
MIC of partner antibiotic in the presence of PFOB at 4 mg/L (E. faecalis ATCC 29212; E. faecalis ATCC 29212, PFOB 4 mg/L): 2 µg/mL
MIC of partner antibiotic in the presence of PFOB at 8 mg/L (E. faecalis ATCC 29212; E. faecalis ATCC 29212, PFOB 8 mg/L): 2 µg/mL
MIC of partner antibiotic in the presence of PFOB at 16 mg/L (E. faecalis ATCC 29212; E. faecalis ATCC 29212, PFOB 16 mg/L): 1 µg/mL
MIC of partner antibiotic in the presence of PFOB at 32 mg/L (E. faecalis ATCC 29212; E. faecalis ATCC 29212, PFOB 32 mg/L): 1 µg/mL
MIC of PFOB & Partner: Partner concentration (E. faecalis ATCC 29212; E. faecalis ATCC 29212, optimum synergistic combination with PFOB, second figure (partner)): 1 µg/mL
MIC (E. faecalis ATCC 29212; Enterococcus faecalis, ATCC29212, read-out: MIC (alone) of Partner): 4 µg/mL
MIC of partner antibiotic in the presence of PFOB at 0.5 mg/L (E. faecalis 5659 (vanA); E. faecalis 5659 (vanA), PFOB 0.5 mg/L): >64 µg/mL
MIC of partner antibiotic in the presence of PFOB at 1 mg/L (E. faecalis 5659 (vanA); E. faecalis 5659 (vanA), PFOB 1 mg/L): >64 µg/mL
MIC of partner antibiotic in the presence of PFOB at 2 mg/L (E. faecalis 5659 (vanA); E. faecalis 5659 (vanA), PFOB 2 mg/L): >64 µg/mL
MIC of partner antibiotic in the presence of PFOB at 4 mg/L (E. faecalis 5659 (vanA); E. faecalis 5659 (vanA), PFOB 4 mg/L): >64 µg/mL
MIC of partner antibiotic in the presence of PFOB at 8 mg/L (E. faecalis 5659 (vanA); E. faecalis 5659 (vanA), PFOB 8 mg/L): >64 µg/mL
MIC of partner antibiotic in the presence of PFOB at 16 mg/L (E. faecalis 5659 (vanA); E. faecalis 5659 (vanA), PFOB 16 mg/L): >64 µg/mL
MIC of partner antibiotic in the presence of PFOB at 32 mg/L (E. faecalis 5659 (vanA); E. faecalis 5659 (vanA), PFOB 32 mg/L): >64 µg/mL
MIC (E. faecalis 5659 (vanA); [1]): > 64 µg/mL
Synergy FIC (E.faecalis 78097 (van B); E.faecalis 78097 (van B), FIC index of PFOB + labelled partner, <0.5 = synergy): 0.375
MIC of partner antibiotic in the presence of PFOB at 0.5 mg/L (E.faecalis 78097 (van B); E.faecalis 78097 (van B), PFOB 0.5 mg/L): 64 µg/mL
MIC of partner antibiotic in the presence of PFOB at 1 mg/L (E.faecalis 78097 (van B); E.faecalis 78097 (van B), PFOB 1 mg/L): 64 µg/mL
MIC of partner antibiotic in the presence of PFOB at 2 mg/L (E.faecalis 78097 (van B); E.faecalis 78097 (van B), PFOB 2 mg/L): 64 µg/mL
MIC of partner antibiotic in the presence of PFOB at 4 mg/L (E.faecalis 78097 (van B); E.faecalis 78097 (van B), PFOB 4 mg/L): 64 µg/mL
MIC of partner antibiotic in the presence of PFOB at 8 mg/L (E.faecalis 78097 (van B); E.faecalis 78097 (van B), PFOB 8 mg/L): 64 µg/mL
MIC of partner antibiotic in the presence of PFOB at 16 mg/L (E.faecalis 78097 (van B); E.faecalis 78097 (van B), PFOB 16 mg/L): 32 µg/mL
MIC of partner antibiotic in the presence of PFOB at 32 mg/L (E.faecalis 78097 (van B); E.faecalis 78097 (van B), PFOB 32 mg/L): 16 µg/mL
MIC of PFOB & Partner: Partner concentration (E.faecalis 78097 (van B); E.faecalis 78097 (van B), optimum synergistic combination with PFOB, second figure (partner)): 32 µg/mL
MIC (E.faecalis 78097 (van B); [1]): > 64 µg/mL
MIC of partner antibiotic in the presence of PFOB at 0.5 mg/L (E. faecalis ATCC 10541; E. faecalis ATCC 10541, PFOB 0.5 mg/L): 2 µg/mL
MIC of partner antibiotic in the presence of PFOB at 1 mg/L (E. faecalis ATCC 10541; E. faecalis ATCC 10541, PFOB 1 mg/L): 2 µg/mL
MIC of partner antibiotic in the presence of PFOB at 2 mg/L (E. faecalis ATCC 10541; E. faecalis ATCC 10541, PFOB 2 mg/L): 2 µg/mL
MIC of partner antibiotic in the presence of PFOB at 4 mg/L (E. faecalis ATCC 10541; E. faecalis ATCC 10541, PFOB 4 mg/L): 2 µg/mL
MIC of partner antibiotic in the presence of PFOB at 8 mg/L (E. faecalis ATCC 10541; E. faecalis ATCC 10541, PFOB 8 mg/L): 2 µg/mL
MIC of partner antibiotic in the presence of PFOB at 16 mg/L (E. faecalis ATCC 10541; E. faecalis ATCC 10541, PFOB 16 mg/L): 1 µg/mL
MIC of partner antibiotic in the presence of PFOB at 32 mg/L (E. faecalis ATCC 10541; E. faecalis ATCC 10541, PFOB 32 mg/L): 1 µg/mL
MIC (E. faecalis ATCC 10541; Enterococcus faecalis, ATCC10541, read-out: MIC (alone) of Partner): 4 µg/mL
